# Experiments:
# Test in all cases: MIC, broth microdilution in Meuller-Hinton broth (NCCLS)
# 533 S. epidermidis = type: cell-based, Staphylococus epidermidis; settings: clinical isolate
# Procedure: (§1) Antibacterial activity in vitro was investigated by broth microdilution method in Meuller-Hinton broth as recommended by NCCLS. All strains tested were clinical isolates either sensitive or resistant to natural glycopeptides. Results are reported in the tables as MIC (minimal inhibitory concentration) in μg/ml.
# (§2) The glycopeptides were tested against a variety of strains, indicated below, including Staphylococus epidermidis, Staphylococus haemolyticus, glycopeptides-intermediate Staphylococus aureus (GISA), glocopeptide-sensitive Enterococcus faecalis (GSE), and glocopeptide-resistant Enterococcus faecalis (GRE). Results are shown in the table as minimum inhibitory concentration (MIC) in units of μg/ml: […]
# 559 E. faecalis (GSE) = type: cell-based, Enterococcus faecalis; settings: glycopeptide-sensitive clinical isolate
# Procedure: as §1, §2
# 560 E. faecalis (GRE) = type: cell-based, Enterococcus faecalis; settings: glycopeptide-resistant clinical isolate
# Procedure: as §1, §2
# 3797 S. aureus (GISA) = type: cell-based, Staphylococus aureus; settings: glycopeptides-intermediate clinical isolate
# Procedure: as §1, §2
# 3798 S. aureus (GISA) = type: cell-based, Staphylococus aureus; settings: glycopeptides-intermediate clinical isolate
# Procedure: as §1, §2
# 569 E. faecium (GRE) = type: cell-based; settings: glycopeptide-resistant clinical isolate
# Procedure: as §1, §2
# 568 E. faecium (GSE) = type: cell-based; settings: glycopeptide-sensitive clinical isolate
# Procedure: as §1, §2
# 602 S. haemolyticus = type: cell-based, Staphylococus haemolyticus; settings: clinical isolate
# Procedure: as §1, §2
Compound,MIC 533 S. epidermidis (533 S. epidermidis) [µg/mL],MIC 559 E. faecalis (GSE) (559 E. faecalis (GSE)) [µg/mL],MIC 560 E. faecalis (GRE) (560 E. faecalis (GRE)) [µg/mL],MIC 3797 S. aureus (GISA) (3797 S. aureus (GISA)) [µg/mL],MIC 3798 S. aureus (GISA) (3798 S. aureus (GISA)) [µg/mL],MIC 569 E. faecium (GRE) (569 E. faecium (GRE)) [µg/mL],MIC 568 E. faecium (GSE) (568 E. faecium (GSE)) [µg/mL],MIC 602 S. haemolyticus (602 S. haemolyticus) [µg/mL]
CNC(CC(C)C)C(=O)NC1C(=O)NC(CC(N)=O)C(=O)NC2C(=O)NC3C(=O)NC(C(=O)NC(C(=O)O)c4cc(O)cc(O)c4-c4cc3ccc4O)C(OC3CC(C)(N)C(O)C(C)O3)c3ccc(cc3)Oc3cc2cc(c3OC2OC(CO)C(O)C(O)C2OC2CC(C)(NC(=O)CNCc3ccc(-c4ccc(Cl)cc4)cc3)C(O)C(C)O2)Oc2ccc(cc2Cl)C1O (stereo not shown) [Compound 44],0.5,1,8,4,4,8,1,2
CNC(CC(C)C)C(=O)NC1C(=O)NC(CC(N)=O)C(=O)NC2C(=O)NC3C(=O)NC(C(=O)NC(C(=O)O)c4cc(O)cc(O)c4-c4cc3ccc4O)C(OC3CC(C)(N)C(O)C(C)O3)c3ccc(cc3)Oc3cc2cc(c3OC2OC(CO)C(O)C(O)C2OC2CC(C)(NC(=O)CNCc3c[nH]c4ccc(OCc5ccccc5)cc34)C(O)C(C)O2)Oc2ccc(cc2Cl)C1O (stereo not shown) [Compound 224],2,2,>64,8,8,16,1,2
CCCCOc1ccc(CNCC(=O)NC2(C)CC(OC3C(Oc4c5cc6cc4Oc4ccc(cc4Cl)C(O)C(NC(=O)C(CC(C)C)NC)C(=O)NC(CC(N)=O)C(=O)NC6C(=O)NC4C(=O)NC(C(=O)NC(C(=O)O)c6cc(O)cc(O)c6-c6cc4ccc6O)C(OC4CC(C)(N)C(O)C(C)O4)c4ccc(cc4)O5)OC(CO)C(O)C3O)OC(C)C2O)cc1 (stereo not shown) [Compound 193],0.5,2,64,4,4,64,1,1
CNC(CC(C)C)C(=O)NC1C(=O)NC(CC(N)=O)C(=O)NC2C(=O)NC3C(=O)NC(C(=O)NC(C(=O)O)c4cc(O)cc(O)c4-c4cc3ccc4O)C(OC3CC(C)(N)C(O)C(C)O3)c3ccc(cc3)Oc3cc2cc(c3OC2OC(CO)C(O)C(O)C2OC2CC(C)(NC(=O)CNCc3ccc(OCc4ccccc4)cc3)C(O)C(C)O2)Oc2ccc(cc2Cl)C1O (stereo not shown) [Compound 223],2,2,64,8,8,16,2,4
CNC(CC(C)C)C(=O)NC1C(=O)NC(CC(N)=O)C(=O)NC2C(=O)NC3C(=O)NC(C(=O)NC(C(=O)O)c4cc(O)cc(O)c4-c4cc3ccc4O)C(OC3CC(C)(N)C(O)C(C)O3)c3ccc(cc3)Oc3cc2cc(c3OC2OC(CO)C(O)C(O)C2OC2CC(C)(NC(=O)C(N)CCCCN)C(O)C(C)O2)Oc2ccc(cc2Cl)C1O (stereo not shown) [Compound 203],0.13,0.25,>64,4,8,16,0.25,0.13
CCCCN(CCCC)c1ccc(CNCC(=O)NC2(C)CC(OC3C(Oc4c5cc6cc4Oc4ccc(cc4Cl)C(O)C(NC(=O)C(CC(C)C)NC)C(=O)NC(CC(N)=O)C(=O)NC6C(=O)NC4C(=O)NC(C(=O)NC(C(=O)O)c6cc(O)cc(O)c6-c6cc4ccc6O)C(OC4CC(C)(N)C(O)C(C)O4)c4ccc(cc4)O5)OC(CO)C(O)C3O)OC(C)C2O)cc1 (stereo not shown) [Compound 187],1,2,32,8,8,32,1,1
CNC(CC(C)C)C(=O)NC1C(=O)NC(CC(N)=O)C(=O)NC2C(=O)NC3C(=O)NC(C(=O)NC(C(=O)O)c4cc(O)cc(O)c4-c4cc3ccc4O)C(O)c3ccc(c(Cl)c3)Oc3cc2cc(c3OC2OC(CO)C(O)C(O)C2OC2CC(C)(NC(=O)CNCc3ccc(F)cc3)C(O)C(C)O2)Oc2ccc(cc2Cl)C1O (stereo not shown) [Compound 291],4,1,8,4,4,8,1,4
N′-stilbenylHNCH2CO eremomycin [Compound 192],0.5,1,8,8,8,4,0.5,0.5
CCCCCCCCCCN(CCCCCCCCCC)CC(=O)NC1(C)CC(OC2C(Oc3c4cc5cc3Oc3ccc(cc3Cl)C(O)C(NC(=O)C(CC(C)C)NC)C(=O)NC(CC(N)=O)C(=O)NC5C(=O)NC3C(=O)NC(C(=O)NC(C(=O)O)c5cc(O)cc(O)c5-c5cc3ccc5O)C(OC3CC(C)(N)C(O)C(C)O3)c3ccc(cc3)O4)OC(CO)C(O)C2O)OC(C)C1O (stereo not shown) [Compound 194],2,4,16,8,8,8,2,2
CNC(CC(C)C)C(=O)NC1C(=O)NC(CC(N)=O)C(=O)NC2C(=O)NC3C(=O)NC(C(=O)NC(C(=O)O)c4cc(O)cc(O)c4-c4cc3ccc4O)C(OC3CC(C)(N)C(O)C(C)O3)c3ccc(cc3)Oc3cc2cc(c3OC2OC(CO)C(O)C(O)C2OC2CC(C)(NC(=O)CNCc3cc4ccccc4c4ccccc34)C(O)C(C)O2)Oc2ccc(cc2Cl)C1O (stereo not shown) [Compound 287],2,2,>64,16,16,>64,2,2
CCCCc1ccc(CNCC(=O)NC2(C)CC(OC3C(Oc4c5cc6cc4Oc4ccc(cc4Cl)C(O)C4NC(=O)C(NC(=O)C6NC(=O)C(CC(N)=O)NC(=O)C(NC(=O)C(CC(C)C)NC)C(O)c6ccc(c(Cl)c6)O5)c5ccc(O)c(c5)-c5c(O)cc(O)cc5C(C(=O)NCc5ccc(F)cc5)NC4=O)OC(CO)C(O)C3O)OC(C)C2O)cc1 (stereo not shown) [Compound 276],0.5,4,16,2,2,16,2,2
CNC(CC(C)C)C(=O)NC1C(=O)NC(CC(N)=O)C(=O)NC2C(=O)NC3C(=O)NC(C(=O)NC(C(=O)O)c4cc(O)cc(O)c4-c4cc3ccc4O)C(O)c3ccc(c(Cl)c3)Oc3cc2cc(c3OC2OC(CO)C(O)C(O)C2OC2CC(C)(NC(=O)CNCc3ccc(-c4ccc(Cl)cc4)cc3)C(O)C(C)O2)Oc2ccc(cc2Cl)C1O (stereo not shown) [Compound 210],0.13,0.5,16,1,1,16,0.25,0.25
CCCCCCCCCC(=O)NCC(=O)NC1(C)CC(OC2C(Oc3c4cc5cc3Oc3ccc(cc3Cl)C(O)C(NC(=O)C(CC(C)C)NC)C(=O)NC(CC(N)=O)C(=O)NC5C(=O)NC3C(=O)NC(C(=O)NC(C(=O)O)c5cc(O)cc(O)c5-c5cc3ccc5O)C(OC3CC(C)(N)C(O)C(C)O3)c3ccc(cc3)O4)OC(CO)C(O)C2O)OC(C)C1O (stereo not shown) [Compound 186],2,2,>64,16,16,>64,1,2
CNC(CC(C)C)C(=O)NC1C(=O)NC(CC(N)=O)C(=O)NC2C(=O)NC3C(=O)NC(C(=O)NC(C(=O)NC(C)C45CC6CC(CC(C6)C4)C5)c4cc(O)cc(O)c4-c4cc3ccc4O)C(OC3CC(C)(N)C(O)C(C)O3)c3ccc(cc3)Oc3cc2cc(c3OC2OC(CO)C(O)C(O)C2OC2CC(C)(N)C(O)C(C)O2)Oc2ccc(cc2Cl)C1O (stereo not shown) [Compound 262],0.5,1,16,4,2,16,0.5,1

# Source: patent publication US7632918B2, “Semi-synthetic glycopeptides with antibiotic activity” (Novartis Vaccines and Diagnostics, Inc., priority 2005, dated 2009)
